From paper PMC11203919, “Heat Stress and Microbial Stress Induced Defensive Phenol Accumulation in Medicinal Plant Sparganium stoloniferum” (International Journal of Molecular Sciences, 2024)

Biological target: T1, SsC4H (Sparganium stoloniferum, UniProt A0AAU8GF87)
T1 construct: gene C4H; pYeDP60 in yeast WAT11 culture, not purified
Experiment: substrate feeding of yeast culture, LC-MS/MS of p-coumaric acid
Format: cell-based
Conditions: 0.5 mM substrate, 16 °C, 12 h; yeast WAT11

T1 sequence (A0AAU8GF87 entry or part of it): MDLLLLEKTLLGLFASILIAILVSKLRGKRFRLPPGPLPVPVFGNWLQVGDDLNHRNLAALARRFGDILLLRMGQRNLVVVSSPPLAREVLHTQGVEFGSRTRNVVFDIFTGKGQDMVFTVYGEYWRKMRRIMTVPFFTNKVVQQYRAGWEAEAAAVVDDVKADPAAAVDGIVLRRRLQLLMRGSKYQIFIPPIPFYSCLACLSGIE

Compound: O=C(O)/C=C/c1ccccc1 [trans-cinnamic acid]
- substrate feeding of yeast culture, LC-MS/MS of p-coumaric acid: Upon adding trans-cinnamic acid to the SsC4H-pYeDP60-WAT11 culture, hydroxylation occurred to produce p-coumaric acid
